Read-outs that look alike come from different tables or passages of the source.
Columns and labels:
SARS-CoV-2 3CLpro = SARS-CoV-2 3CLpro (Severe acute respiratory syndrome coronavirus 2 (2019-nCoV) (SARS-CoV-2), UniProt P0DTD1); test: biochemical
SARS-CoV-2 = test: microbe, parasite or virus in culture; format: cell-based; conditions: Severe acute respiratory syndrome coronavirus 2, 72 h, read-out: ID50 (Antiviral Data)
[1] = read-out: IC50 (SARS-CoV-2 3CLpro Inhibition)
[2] = IC50 (SARS-CoV-2 3CLpro Inhibition)

| Compound | IC50 (SARS-CoV-2 3CLpro; [1]) [µM] | IC50 (SARS-CoV-2 3CLpro; [2]) [µM] | IC50 (SARS-CoV-2) [µM] |
| --- | --- | --- | --- |
| C=CC(=O)N1CCCC1C(=O)N(c1ccc(C(C)(C)C)cc1)C(C(=O)NC(C)(C)C)c1cccnc1 (stereo not drawn) [Compound 1] | > 100 |  |  |
| C=C(C)C(=O)N1CCCC1C(=O)N(c1ccc(C(C)(C)C)cc1)C(C(=O)NC(C)(C)C)c1cccnc1 (stereo not drawn) [Compound 2] |  | > 100 | > 100 |
| C/C=C(\C)C(=O)N1CCCC1C(=O)N(c1ccc(C(C)(C)C)cc1)C(C(=O)NC(C)(C)C)c1cccnc1 (stereo not drawn) [Compound 3] |  | > 100 | > 100 |
| C=C(C)C(=O)N1CCCC1C(=O)N(c1ccc(C(C)(C)C)cc1)C(C(=O)NC(C)(C)C)c1cccnc1 (stereo not drawn) [Compound 4] | > 100 |  |  |
| CCC(=O)N1CCCC1C(=O)N(c1ccc(C(C)(C)C)cc1)C(C(=O)NC(C)(C)C)c1cccnc1 (stereo not drawn) [Compound 5] |  | > 100 | > 100 |
| C/C=C(\C)C(=O)N1CCC[C@@H]1C(=O)N(c1ccc(C(C)(C)C)cc1)C(C(=O)NC(C)(C)C)c1cccnc1 (stereo partly drawn) [Compound 6] |  | 10.1 to 100 |  |
| C/C=C/C(=O)N1CCCC1C(=O)N(c1ccc(C(C)(C)C)cc1)C(C(=O)NC(C)(C)C)c1cccnc1 (stereo not drawn) [Compound 7] |  | 1 to 10 | > 100 |
| C/C=C/C(=O)N1CCCC1C(=O)N(c1ccc(C(C)(C)C)cc1)C(C(=O)NC(C)(C)C)c1cccnc1 (stereo not drawn) [Compound 8] |  | 10.1 to 100 |  |
| C=CC(=O)N1CCC(C(=O)N(c2ccc(C(C)(C)C)cc2)C(C(=O)NC(C)(C)C)c2cccnc2)C1 (stereo not drawn) [Compound 9] |  | 10.1 to 100 | > 100 |
| C=CC(=O)N1CC[C@@H](C(=O)N(c2ccc(C(C)(C)C)cc2)C(C(=O)NC(C)(C)C)c2cccnc2)C1 (stereo partly drawn) [Compound 10] |  | 10.1 to 100 |  |
| C=CS(=O)(=O)N1CCCC1C(=O)N(c1ccc(C(C)(C)C)cc1)C(C(=O)NC(C)(C)C)c1cccnc1 (stereo not drawn) [Compound 11] |  | > 100 | > 100 |
| C=CC(=O)N1CCCC1C(=O)N(c1ccc(C(C)(C)C)cc1)C(C(=O)NC(C)(C)C)c1cccnc1 (stereo not drawn) [Compound 12] |  | > 100 | > 100 |
| C=CS(=O)(=O)N1CC[C@@H](C(=O)N(c2ccc(C(C)(C)C)cc2)C(C(=O)NC(C)(C)C)c2cccnc2)C1 (stereo partly drawn) [Compound 13] |  | > 100 | > 100 |
| C=CS(=O)(=O)N1CC[C@@H](C(=O)N(c2ccc(C(C)(C)C)cc2)C(C(=O)NC(C)(C)C)c2cccnc2)C1 (stereo partly drawn) [Compound 14] | > 100 |  |  |
| C=CC(=O)N1CCC(F)(F)CC1C(=O)N(c1ccc(C(C)(C)C)cc1)C(C(=O)NC(C)(C)C)c1cccnc1 (stereo not drawn) [Compound 15] |  | > 100 | > 100 |

— patent US11795159B2 (priority 2021, dated 2023)
